Paper PMC10544018 (Journal of Medicinal Chemistry, 2023)

Experiments:
human serum albumin = human serum albumin (Homo sapiens, UniProt P02768); test: PPB studies on HSA HPLC column; assay type: in vitro ADME; conditions: CHIRALPAK HSA HPLC column (human serum albumin); experimentally determined percentage of the compound bound to human serum albumin
Protocol: (§1) Both were experimentally obtained employing HPLC-based protocols.[39],[40] […] PPB values were determined in view of how they could impact future pharmacokinetic studies of compounds as VHL inhibitors, or once conjugated into bifunctional PROTACs, for which PPB can be a limiting factor.
PPB was estimated by correlating the logarithmic retention times of the analytes on a […] HSA 50 × 3 mm, 5 μm column with the literature-known % PPB values (converted into log K values) of the following drugs: warfarin, ketoprofen, budesonide, nizatidine, indomethacin, acetylsalicylic acid, carbamazepine, piroxicam, nicardipine, and cimetidine.[63] Samples were dissolved in MeCN/DMSO 9:1 to achieve a final concentration of 0.5 mg/mL. The mobile phase A was 50 mM ammonium acetate adjusted to pH 7.4 with 10% NaOH, while mobile phase B was iPrOH. […] After injecting 3 μL of the sample, a linear gradient from 100% A to 30% iPrOH in 5.4 min was applied. From 5.4 to 18 min, 30% iPrOH was kept, followed by switching back to 100% A in 1.0 min and a re-equilibration time of 6 min.

[1] = Log D7.4 measurement by chromatographic method; assay type: physicochemical; conditions: experimental distribution coefficient at pH 7.4; read-out: e log D7.4
Protocol: as §1
The determination of the log D7.4 values was performed by a chromatographic method as described previously.[41],[62] […] Subsequently, the mean retention times (n = 2) of the analytes were taken to calculate their log D7.4 values.

VCB protein = biological target: T1, VCB protein (Homo sapiens, UniProt P40337); test: Competitive fluorescence polarization (FP) binding assay, displacement of FAM-labeled HIF-1α peptide; conditions: for Kd: dissociation constant, determined by FP, mean ± S.E.M., back-calculated from IC50; for IC50: mean IC50 values obtained from the FP assay, read-out: IC50 ± S.E.M, FP assay
T1 construct: A plasmid containing pVHL54–213 with an N-terminal His6 tag; His6 (N, cleaved yes); made in house; host or cells: Escherichia coli BL21 (DE3)
Protocol: Binding of a ligand to the HIF binding site of VHL displaces a fluorescein-labeled, 19-mer HIF-1α oligopeptide, leading to a change in polarization of emitted light upon excitation of the competing fluorescent probe.
All components were dissolved from stock solutions using 100 mM Bis–Tris, 100 mM NaCl, 1 mM DTT, pH 7.0, to yield a final assay volume of 15 μL. DMSO was added as appropriate to ensure a final concentration of 2% (v/v). Control wells containing VCB and JC9 with no compound (zero displacement), or JC9, in the absence of protein (maximum displacement) were also included to allow for normalization. Percentage displacement values were obtained by normalization of controls and were plotted against log[compound]. The IC50 values were determined for each titration using non-linear regression analysis with Prism GraphPad (Table S1). Dissociation constants Kd for the compound–VCB interaction were back-calculated from the measured IC50 values by using a displacement binding model as described.[16],[64]

SMILES	fraction unbound at 0.5 mg/mL (human serum albumin)	chromatographic logD [1]	Kd (VCB protein)	IC50 (VCB protein)
Cc1cc(-c2scnc2C)ccc1CNC(=O)[C@@H]1C[C@@H](O)CN1C(=O)[C@@H](NC(=O)C1(C#N)CC1)C(C)(C)C [Compound 2, (2S,4R)-1-((S)-2-(1-Cyanocyclopropane-1-carboxamido)-3,3-dimethylbutanoyl)-4-hydroxy-N-(2-methyl-4-(4-methylthiazol-5-yl)benzyl)pyrrolidine-2-carboxamide]	0.1	2	149 ± 28 nM	668 ± 33 nM
Cc1ncsc1-c1ccc(CNC(=O)[C@@H]2C[C@@H](O)CN2C(=O)[C@@H](NC(=O)C2(C#N)CC2)C(C)(C)C)cc1Cl [Compound 9, (2S,4R)-N-(3-Chloro-4-(4-methylthiazol-5-yl)benzyl)-1-((S)-2-(1-cyanocyclopropane-1-carboxamido)-3,3-dimethylbutanoyl)-4-hydroxypyrrolidine-2-carboxamide]	0.09	2.1	220 ± 11 nM	1030 ± 127 nM
Cc1cc(CNC(=O)[C@@H]2C[C@@H](O)CN2C(=O)[C@@H](NC(=O)C2(C#N)CC2)C(C)(C)C)ccc1-c1scnc1C [Compound 6, (2S,4R)-1-((S)-2-(1-Cyanocyclopropane-1-carboxamido)-3,3-dimethylbutanoyl)-4-hydroxy-N-(3-methyl-4-(4-methylthiazol-5-yl)benzyl)pyrrolidine-2-carboxamide]	0.11	2	496 ± 62 nM	2260 ± 73 nM
Cc1ncsc1-c1ccc2c(c1)CC[C@@H]2NC(=O)[C@@H]1C[C@@H](O)CN1C(=O)[C@@H](NC(=O)C1(C#N)CC1)C(C)(C)C [Compound 34, (2S,4R)-1-((S)-2-(1-Cyanocyclopropane-1-carboxamido)-3,3-dimethylbutanoyl)-4-hydroxy-N-((S)-5-(4-methylthiazol-5-yl)-2,3-dihydro-1H-inden-1-yl)pyrrolidine-2-carboxamide]	0.1	2.2	3920 ± 420 nM	15900 ± 934 nM
Cc1cc(-c2scnc2C)cc(C)c1CNC(=O)[C@@H]1C[C@@H](O)CN1C(=O)[C@@H](NC(=O)C1(C#N)CC1)C(C)(C)C [Compound 10, (2S,4R)-1-((S)-2-(1-Cyanocyclopropane-1-carboxamido)-3,3-dimethylbutanoyl)-N-(2,6-dimethyl-4-(4-methylthiazol-5-yl)benzyl)-4-hydroxypyrrolidine-2-carboxamide]	0.1	2.2	4110 ± 560 nM	21100 ± 2180 nM
Cc1ncsc1-c1ccc(CNC(=O)[C@@H]2C[C@@H](O)CN2C(=O)[C@@H](NC(=O)C2(C#N)CC2)C(C)(C)C)c(Cl)c1 [Compound 5, (2S,4R)-N-(2-Chloro-4-(4-methylthiazol-5-yl)benzyl)-1-((S)-2-(1-cyanocyclopropane-1-carboxamido)-3,3-dimethylbutanoyl)-4-hydroxypyrrolidine-2-carboxamide]	0.09	2.2	245 ± 20 nM	1140 ± 131 nM
Cc1ncsc1-c1ccc(CNC(=O)[C@@H]2C[C@@H](O)CN2C(=O)[C@@H](NC(=O)C2(C#N)CC2)C(C)(C)C)c(F)c1 [Compound 4, (2S,4R)-1-((S)-2-(1-Cyanocyclopropane-1-carboxamido)-3,3-dimethylbutanoyl)-N-(2-fluoro-4-(4-methylthiazol-5-yl)benzyl)-4-hydroxypyrrolidine-2-carboxamide]	0.12	1.9	297 ± 34 nM	1360 ± 56 nM
Cc1ncsc1-c1cc(F)c(CNC(=O)[C@@H]2C[C@@H](O)CN2C(=O)[C@@H](NC(=O)C2(C#N)CC2)C(C)(C)C)c(F)c1 [Compound 12, (2S,4R)-1-((S)-2-(1-Cyanocyclopropane-1-carboxamido)-3,3-dimethylbutanoyl)-N-(2,6-difluoro-4-(4-methylthiazol-5-yl)benzyl)-4-hydroxypyrrolidine-2-carboxamide]	0.14	1.9	2130 ± 150 nM	11000 ± 747 nM
